Experimental data taken from ChEMBL document CHEMBL4393671, “Design of a Cyclin G Associated Kinase (GAK)/Epidermal Growth Factor Receptor (EGFR) Inhibitor Set to Interrogate the Relationship of EGFR and GAK in Chordoma” (J Med Chem, 2019).
The source made the active and inactive calls. No cut-off for these calls is given here.

Tests used:
[1] = target: T1, Epidermal growth factor receptor (Homo sapiens, UniProt P00533); assay: Inhibition of EGFR in human UCH1 cells assessed as reduction in EGF-induced EGFR phosphorylation at Y1068 residue at 10 uM preincubated for 4 hrs followed by EGF--stimulation and measured after 15 mins by Western blot analysis relative to control; assay type: cell-based
T1 sequence (P00533 whole entry): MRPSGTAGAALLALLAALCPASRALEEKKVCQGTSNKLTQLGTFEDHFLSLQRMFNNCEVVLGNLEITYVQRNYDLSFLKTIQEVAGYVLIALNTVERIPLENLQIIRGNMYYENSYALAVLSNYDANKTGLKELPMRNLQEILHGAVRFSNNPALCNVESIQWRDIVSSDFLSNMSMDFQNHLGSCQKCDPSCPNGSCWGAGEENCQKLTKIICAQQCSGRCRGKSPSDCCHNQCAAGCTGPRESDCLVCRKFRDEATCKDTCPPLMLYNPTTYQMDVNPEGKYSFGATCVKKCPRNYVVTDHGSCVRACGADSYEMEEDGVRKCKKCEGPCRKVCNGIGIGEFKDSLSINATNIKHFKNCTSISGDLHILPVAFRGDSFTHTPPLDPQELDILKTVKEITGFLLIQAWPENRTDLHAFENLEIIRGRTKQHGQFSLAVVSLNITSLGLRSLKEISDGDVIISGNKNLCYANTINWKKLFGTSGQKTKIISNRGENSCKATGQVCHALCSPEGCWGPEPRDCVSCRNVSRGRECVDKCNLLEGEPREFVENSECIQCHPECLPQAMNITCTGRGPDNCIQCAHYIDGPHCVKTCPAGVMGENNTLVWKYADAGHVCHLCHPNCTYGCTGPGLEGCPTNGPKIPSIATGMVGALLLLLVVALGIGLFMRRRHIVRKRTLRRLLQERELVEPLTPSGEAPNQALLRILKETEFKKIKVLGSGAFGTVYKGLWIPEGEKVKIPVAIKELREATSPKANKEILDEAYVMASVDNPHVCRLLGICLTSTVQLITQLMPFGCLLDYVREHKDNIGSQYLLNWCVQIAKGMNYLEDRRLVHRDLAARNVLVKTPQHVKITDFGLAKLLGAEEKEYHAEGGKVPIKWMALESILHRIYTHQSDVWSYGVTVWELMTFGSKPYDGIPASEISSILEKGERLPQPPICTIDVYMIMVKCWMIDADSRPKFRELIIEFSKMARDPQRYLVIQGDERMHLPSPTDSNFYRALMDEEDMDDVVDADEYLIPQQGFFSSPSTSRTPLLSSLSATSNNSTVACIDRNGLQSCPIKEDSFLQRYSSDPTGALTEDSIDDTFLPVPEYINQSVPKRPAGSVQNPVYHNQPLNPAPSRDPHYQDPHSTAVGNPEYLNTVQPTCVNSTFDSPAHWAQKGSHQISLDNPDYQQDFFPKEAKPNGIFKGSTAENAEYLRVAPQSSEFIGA

cells [2] = assay type: functional, cell-based; conditions: Homo sapiens, UCH2, 72 h
Description: Antiproliferative activity against human UCH2 cells measured after 72 hrs by alamar blue assay

[3] = target: T2, Cyclin-G-associated kinase (Homo sapiens, UniProt O14976); assay: Inhibition of tracer 5 binding to human N-terminal nano luciferase-fused GAK expressed in HEK293 cells measured after 2 hrs by nanoBRET assay; assay type: cell-based; conditions: hek293
T2 sequence (O14976 whole entry): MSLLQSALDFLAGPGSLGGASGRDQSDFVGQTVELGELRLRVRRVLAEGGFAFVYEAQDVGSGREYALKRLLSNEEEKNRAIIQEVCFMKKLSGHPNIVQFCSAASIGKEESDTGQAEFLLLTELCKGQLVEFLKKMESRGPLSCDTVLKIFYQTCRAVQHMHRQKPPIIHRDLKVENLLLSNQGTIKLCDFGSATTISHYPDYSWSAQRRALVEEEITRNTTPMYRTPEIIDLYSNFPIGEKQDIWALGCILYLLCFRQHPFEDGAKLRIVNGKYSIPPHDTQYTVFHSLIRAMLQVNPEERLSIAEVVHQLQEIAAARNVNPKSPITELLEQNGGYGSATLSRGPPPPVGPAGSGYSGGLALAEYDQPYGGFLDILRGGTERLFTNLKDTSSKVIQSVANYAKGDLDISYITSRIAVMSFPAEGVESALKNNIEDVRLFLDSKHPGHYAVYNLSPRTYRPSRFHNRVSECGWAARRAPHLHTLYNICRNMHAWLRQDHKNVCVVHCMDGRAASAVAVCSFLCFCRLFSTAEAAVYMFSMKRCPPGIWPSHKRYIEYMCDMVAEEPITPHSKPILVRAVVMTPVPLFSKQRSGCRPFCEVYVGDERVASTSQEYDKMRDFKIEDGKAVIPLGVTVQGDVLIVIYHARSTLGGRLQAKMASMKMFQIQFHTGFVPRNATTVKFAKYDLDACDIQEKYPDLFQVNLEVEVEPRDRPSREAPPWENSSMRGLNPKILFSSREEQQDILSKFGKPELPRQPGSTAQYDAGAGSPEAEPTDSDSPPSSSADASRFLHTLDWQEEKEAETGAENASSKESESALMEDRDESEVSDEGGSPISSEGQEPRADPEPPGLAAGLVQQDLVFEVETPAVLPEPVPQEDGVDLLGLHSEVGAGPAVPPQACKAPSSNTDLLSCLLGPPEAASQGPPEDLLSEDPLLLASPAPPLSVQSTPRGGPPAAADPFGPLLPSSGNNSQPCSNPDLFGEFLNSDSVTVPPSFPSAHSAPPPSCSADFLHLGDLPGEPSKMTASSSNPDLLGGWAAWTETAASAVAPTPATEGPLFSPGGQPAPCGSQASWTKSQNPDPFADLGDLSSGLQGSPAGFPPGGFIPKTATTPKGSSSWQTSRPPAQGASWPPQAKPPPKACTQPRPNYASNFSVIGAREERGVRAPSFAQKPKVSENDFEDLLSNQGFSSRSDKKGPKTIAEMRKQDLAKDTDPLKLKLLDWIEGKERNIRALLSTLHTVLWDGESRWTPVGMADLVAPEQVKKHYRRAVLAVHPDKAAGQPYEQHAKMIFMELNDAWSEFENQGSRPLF

cells [4] = assay type: functional, cell-based; conditions: Homo sapiens, 72 h
Description: Antiproliferative activity against human UCH7 cells measured after 72 hrs by alamar blue assay

cells [5] = assay type: functional, cell-based; conditions: Homo sapiens, 72 h; remark: listed apart in the source
Description: Antiproliferative activity against human UMCHOR1 cells measured after 72 hrs by alamar blue assay

cells [6] = assay type: functional, cell-based; conditions: Homo sapiens, 72 h; remark: listed apart in the source
Description: Antiproliferative activity against human UCH12 cells measured after 72 hrs by alamar blue assay

cells [7] = assay type: functional, cell-based; conditions: Homo sapiens, 72 h; remark: listed apart in the source
Description: Antiproliferative activity against human UCH14 cells measured after 72 hrs by alamar blue assay

[8] = Effect on total EGFR expression in human UCH1 cells at 1 to 10 uM measured after 4 hrs by Western blot analysis; assay type: ADME, cell-based
[9] = Effect on total EGFR expression in human UCH2 cells at 1 to 10 uM measured after 4 hrs by Western blot analysis; assay type: ADME, cell-based
[10] = target: T1, Epidermal growth factor receptor; assay: Inhibition of EGFR in human UCH1 cells assessed as reduction in EGF-induced EGFR phosphorylation at Y1068 residue at 1 uM preincubated for 4 hrs followed by EGF--stimulation and measured after 15 mins by Western blot analysis relative to control; assay type: cell-based
[11] = target: T1, Epidermal growth factor receptor; assay: Inhibition of EGFR in human UCH2 cells assessed as reduction in EGF-induced EGFR phosphorylation at Y1068 residue at 10 uM preincubated for 4 hrs followed by EGF--stimulation and measured after 15 mins by Western blot analysis relative to control; assay type: cell-based
[12] = target: T1, Epidermal growth factor receptor; assay: Inhibition of EGFR in human UCH2 cells assessed as reduction in EGF-induced EGFR phosphorylation at Y1068 residue at 1 uM preincubated for 4 hrs followed by EGF--stimulation and measured after 15 mins by Western blot analysis relative to control; assay type: cell-based
[13] = target: T3, Cyclin-G-associated kinase (Homo sapiens) (UniProt O14976); assay: Binding affinity to GAK in human SUM159 cell lysates by multiplexed inhibitor bead profiling-based LC-MS/MS analysis; assay type: subcellular; conditions: Lysate
T3 sequence (whole entry): T2 sequence (O14976 whole entry)

[14] = target: Receptor-interacting serine/threonine-protein kinase 2 (Homo sapiens) (UniProt O43353); assay: Binding affinity to RIPK2 in human SUM159 cell lysates by multiplexed inhibitor bead profiling-based LC-MS/MS analysis; assay type: subcellular; conditions: Lysate
Receptor-interacting serine/threonine-protein kinase 2 (Homo sapiens), sequence (O43353 whole entry): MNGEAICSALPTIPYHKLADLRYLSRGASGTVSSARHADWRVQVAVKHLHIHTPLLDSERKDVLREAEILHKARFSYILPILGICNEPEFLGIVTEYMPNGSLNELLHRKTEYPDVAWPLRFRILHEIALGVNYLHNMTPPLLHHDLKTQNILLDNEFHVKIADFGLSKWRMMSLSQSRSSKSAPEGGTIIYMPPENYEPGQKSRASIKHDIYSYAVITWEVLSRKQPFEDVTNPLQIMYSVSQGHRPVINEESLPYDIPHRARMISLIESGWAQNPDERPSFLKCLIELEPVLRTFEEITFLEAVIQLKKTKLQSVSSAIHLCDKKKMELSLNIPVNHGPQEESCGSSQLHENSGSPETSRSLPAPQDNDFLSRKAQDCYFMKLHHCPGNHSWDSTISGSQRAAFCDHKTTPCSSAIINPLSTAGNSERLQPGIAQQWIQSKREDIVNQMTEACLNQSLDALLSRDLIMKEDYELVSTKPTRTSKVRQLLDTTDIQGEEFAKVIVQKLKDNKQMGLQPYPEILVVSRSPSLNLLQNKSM

[15] = target: T4, STE20-related kinase adapter protein alpha (Homo sapiens) (UniProt Q7RTN6); assay: Binding affinity to LYK5 in human SUM159 cell lysates by multiplexed inhibitor bead profiling-based LC-MS/MS analysis; assay type: subcellular; conditions: Lysate
T4 sequence (whole entry): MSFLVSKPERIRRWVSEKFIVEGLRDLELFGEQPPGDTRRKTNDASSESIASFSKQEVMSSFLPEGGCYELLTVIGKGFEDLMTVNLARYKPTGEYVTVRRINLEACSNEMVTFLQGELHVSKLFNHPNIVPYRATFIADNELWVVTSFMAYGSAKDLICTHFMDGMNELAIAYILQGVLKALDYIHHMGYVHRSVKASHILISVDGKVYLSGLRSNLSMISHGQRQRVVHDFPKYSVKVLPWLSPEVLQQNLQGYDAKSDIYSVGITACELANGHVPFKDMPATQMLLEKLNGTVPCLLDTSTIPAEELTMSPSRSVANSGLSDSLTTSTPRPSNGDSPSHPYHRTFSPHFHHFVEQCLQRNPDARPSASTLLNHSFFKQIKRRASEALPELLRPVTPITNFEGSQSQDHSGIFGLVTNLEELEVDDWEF

inhibition [1]: 60.8%
IC50 (cells [2]): > 50 µM
IC50 [3]: 0.5 µM
IC50 (cells [4]): 20 µM
IC50 (cells [5]): 14 µM
IC50 (cells [6]): 30 µM
IC50 (cells [7]): 13 µM
inhibition [10]: 0%
inhibition [11]: 71.3%
inhibition [12]: 0%
Activity [13]: Active
Activity [14]: Active
Activity [15]: Active
SMILES: C#Cc1cccc(Nc2ccnc3cc(OC)c(OC)cc23)c1
Activity [8]: Non-Toxic
Activity [9]: Non-Toxic
